Measured values taken from patent US11186554B2, “Non-fused tricyclic compounds” (VIVACE THERAPEUTICS, INC., priority 2017, dated 2021).

The compounds below were run on firefly luciferase activity (assay: Dual-Glo firefly/renilla luciferase reporter assay in cells). Conditions: 24 h, read-out: Firefly Luciferase IC50 (μM).
Assay type: cell-based

| SMILES | IC50 |
| --- | --- |
| OCCn1nnc(-c2ccccc2Nc2ccccc2F)n1 [Compound 36, 2-(5-(2-((2-fluorophenyl)amino)phenyl)-2H-tetrazol-2-yl)ethanol] | 1 to 5 µM |
| OCCn1nnc(-c2cnccc2Nc2ccc(C(F)(F)F)cc2)n1 [Compound 78, 2-[5-[4-[4-(trifluoromethyl)anilino]-3-pyridyl]tetrazol-2-yl]ethanol] | 1 to 5 µM |
| O=C(Cn1nnc(-c2ccccc2Nc2ccc(C(F)(F)F)cc2)n1)C1CC1 [Compound 121, 1-cyclopropyl-2-[5-[2-[4-(trifluoromethyl)anilino]phenyl]tetrazol-2-yl]ethanone] | 0.1 to 1 µM |
| OCCn1nnc(-c2ccccc2Nc2cccc(F)c2)n1 [Compound 10, 2-(5-(2-((3-fluorophenyl)amino)phenyl)-2H-tetrazol-2-yl)ethanol] | 0.1 to 1 µM |
| O=C(Cn1nnc(-c2ccccc2Nc2ccc(C(F)(F)F)cc2)n1)NO [Compound 113, 2-[5-[2-[4-(trifluoromethyl)anilino]phenyl]tetrazol-2-yl]ethanehydroxamic acid] | 0.1 to 1 µM |
| COc1ccc(-c2nnn(CCO)n2)c(Nc2ccc(C(F)(F)F)cc2)c1 [Compound 241, 2-[5-[4-methoxy-2-[4-(trifluoromethyl)anilino]phenyl]tetrazol-2-yl]ethanol] | < 0.1 µM |
| OCCn1nnc(-c2ccccc2Nc2cccc(Cl)c2)n1 [Compound 250, 2-(5-(2-((3-chlorophenyl)amino)phenyl)-2H-tetrazol-2-yl)ethanol] | 1 to 5 µM |
| OCCn1nnc(-c2cccnc2Nc2ccc(C(F)(F)F)cc2)n1 [Compound 69, 2-(5-(2-((4-(trifluoromethyl)phenyl)amino)pyridin-3-yl)-2H-tetrazol-2-yl)ethanol] | 0.1 to 1 µM |
| Cc1ccc(Nc2ccc(C(F)(F)F)cc2)c(-c2nnn(CCO)n2)c1 [Compound 242, 2-(5-(5-methyl-2-((4-(trifluoromethyl)phenyl)amino)phenyl)-2H-tetrazol-2-yl)ethanol] | < 0.1 µM |
| CNC(=O)Cn1nnc(-c2ccccc2Nc2ccc(OC(F)(F)F)cc2)n1 [Compound 46, N-methyl-2-[5-[2-[4-(trifluoromethoxy)anilino]phenyl]tetrazol-2-yl]acetamide] | 0.1 to 1 µM |
| OCCn1nnc(-c2ccccc2Nc2ccc(F)cc2)n1 [Compound 8, 2-[5-[2-(4-fluoroanilino)phenyl]tetrazol-2-yl]ethanol] | 0.1 to 1 µM |
| OCCn1cnc(-c2ccccc2Nc2cccc(C(F)(F)F)c2)n1 [Compound 39, 2-(3-(2-((3-(trifluoromethyl)phenyl)amino)phenyl)-1H-1,2,4-triazol-1-yl)ethanol] | 1 to 5 µM |
| OCCn1nnc(-c2ccccc2Nc2ccc(OC(F)(F)F)cc2)n1 [Compound 11, 2-(5-(2-((4-(Trifluoromethoxy)phenyl)amino)phenyl)-2H-tetrazol-2-yl)ethanol] | < 0.1 µM |

Same assay, conditions: 24 hrs compound treatment, starting from 3 uM, 1:3 dilution, 10 points; read-out: Firefly Luciferase IC50

| SMILES | IC50 |
| --- | --- |
| CC(C)C(O)Cn1nnc(-c2ccccc2Nc2ccc(C(F)(F)F)cc2)n1 (stereo not shown) [Compound 141, 3-methyl-1-[5-[2-[4-(trifluoromethyl)anilino]phenyl]tetrazol-2-yl]butan-2-ol] | 0.1 to 1 µM |
| CCOC(=O)Cn1ncc(-c2ccccc2Nc2ccc(C(F)(F)F)cc2)c1C [Compound 77, ethyl 2-[5-methyl-4-[2-[4-(trifluoromethyl)anilino]phenyl]pyrazol-1-yl]acetate] | < 0.1 µM |
| O=C1NCC(Cn2nnc(-c3ccccc3Nc3ccc(C(F)(F)F)cc3)n2)O1 (stereo not shown) [Compound 136, 5-((5-(2-((4-(trifluoromethyl)phenyl)amino)phenyl)-2H-tetrazol-2-yl)methyl)oxazolidin-2-one] | 0.1 to 1 µM |
| Cc1nn(CCO)cc1-c1ccccc1Nc1ccc(C(F)(F)F)cc1 [Compound 83, 2-[3-methyl-4-[2-[4-(trifluoromethyl)anilino]phenyl]pyrazol-1-yl]ethanol] | 1 to 5 µM |
| FC(F)(F)OCCn1nnc(-c2ccccc2Nc2ccc(C(F)(F)F)cc2)n1 [Compound 185, 2-(2-(2-(trifluoromethoxy)ethyl)-2H-tetrazol-5-yl)-N-(4-(trifluoromethyl)phenyl)aniline] | 0.1 to 1 µM |
| OC1(Cn2nnc(-c3ccccc3Nc3ccc(C(F)(F)F)cc3)n2)CSC1 [Compound 244, 3-[[5-[2-[4-(trifluoromethyl)anilino]phenyl]tetrazol-2-yl]methyl]thietan-3-ol] | < 0.1 µM |
| FC(F)(F)c1ccc(Nc2ccccc2-c2nnn(Cc3ccncc3)n2)cc1 [Compound 41, 2-[2-(4-pyridylmethyl)tetrazol-5-yl]-N-[4-(trifluoromethyl)phenyl]aniline] | 0.1 to 1 µM |
| OCCn1nnc(-c2ccccc2Nc2cccc(OC(F)(F)F)c2)n1 [Compound 24, 2-(5-(2-((3-(Trifluoromethoxy)phenyl)amino)phenyl)-2H-tetrazol-2-yl)ethanol] | 0.1 to 1 µM |
| CO[C@@H](C)[C@H](C)n1nnc(-c2ccccc2Nc2ccc(C(F)(F)F)cc2)n1 [Compound 210, 2-(2-((2S,3S)-3-methoxybutan-2-yl)-2H-tetrazol-5-yl)-N-(4-(trifluoromethyl)phenyl)aniline] | < 0.1 µM |
| OC1(Cn2nnc(-c3ccccc3Nc3ccc(C(F)(F)F)cc3)n2)CCCC1 [Compound 152, 1-((5-(2-((4-(Trifluoromethyl)phenyl)amino)phenyl)-2H-tetrazol-2-yl)methyl)cyclopentanol] | < 0.1 µM |
| NCCCn1nnc(-c2ccccc2Nc2ccc(C(F)(F)F)cc2)n1 [Compound 216, 2-(2-(3-aminopropyl)-2H-tetrazol-5-yl)-N-(4-(trifluoromethyl)phenyl)aniline] | 0.1 to 1 µM |

Other lines, results leading:

| IC50 | SMILES |
| --- | --- |
| 0.1 to 1 µM | FC(F)(F)c1ccc(Nc2ccccc2-c2nnn(C3CCOCC3)n2)cc1 [Compound 122, 2-(2-tetrahydropyran-4-yltetrazol-5-yl)-N-[4-(trifluoromethyl)phenyl]aniline] |
| 0.1 to 1 µM | OC1(Cn2nnc(-c3ccccc3Nc3ccc(C(F)(F)F)cc3)n2)CCOCC1 [Compound 138, 4-[[5-[2-[4-(trifluoromethyl)anilino]phenyl]tetrazol-2-yl]methyl]tetrahydropyran-4-ol] |
| 0.1 to 1 µM | [O-][S+]1CC(O)(Cn2nnc(-c3ccccc3Nc3ccc(C(F)(F)F)cc3)n2)C1 (stereo not shown) [Compound 245, 1-oxo-3-[[5-[2-[4-(trifluoromethyl)anilino]phenyl]tetrazol-2-yl]methyl]thietan-3-ol] |
| 0.1 to 1 µM | OC1(Cn2nnc(-c3ccccc3Nc3ccc(C(F)(F)F)cc3)n2)CNC1 [Compound 157, 3-[[5-[2-[4-(trifluoromethyl)anilino]phenyl]tetrazol-2-yl]methyl]azetidin-3-ol] |
| 0.1 to 1 µM | O[C@@H]1CCC[C@@H]1n1nnc(-c2ccccc2Nc2ccc(C(F)(F)F)cc2)n1 [Compound 200, (1R,2S)-2-(5-(2-((4-(trifluoromethyl)phenyl)amino)phenyl)-2H-tetrazol-2-yl)cyclopentan-1-ol] |
| 0.1 to 1 µM | OCCCn1nnc(-c2ccccc2Nc2cccc(C(F)(F)F)c2)n1 [Compound 13, 3-[5-[2-[3-(trifluoromethyl)anilino]phenyl]tetrazol-2-yl]propan-1-ol] |
| < 0.1 µM | CC(C)(O)Cn1nnc(-c2ccccc2Nc2ccc(C(F)(F)F)cc2)n1 [Compound 106] |
| 0.1 to 1 µM | CC(=O)N1CCCC(O)(Cn2nnc(-c3ccccc3Nc3ccc(C(F)(F)F)cc3)n2)C1 (stereo not shown) [Compound 155, 1-(3-hydroxy-3-((5-(2-((4-(trifluoromethyl)phenyl)amino)phenyl)-2H-tetrazol-2-yl)methyl)piperidin-1-yl) Ethanone] |
| 0.1 to 1 µM | NCC(CO)n1nnc(-c2ccccc2Nc2ccc(C(F)(F)F)cc2)n1 (stereo not shown) [Compound 259, 3-amino-2-(5-(2-((4-(trifluoromethyl)phenyl)amino)phenyl)-2H-tetrazol-2-yl)propan-1-ol] |
| < 0.1 µM | CCc1ccc(Nc2ccc(C(F)(F)F)cc2)c(-c2nnn(CCO)n2)c1 [Compound 256, 2-[5-[5-ethyl-2-[4-(trifluoromethyl)anilino]phenyl]tetrazol-2-yl]ethanol] |
| 1 to 5 µM | Cn1nc(-c2ccccc2Nc2ccc(C(F)(F)F)cc2)cc1CCO [Compound 196, 2-(1-methyl-3-(2-((4-(trifluoromethyl)phenyl)amino)phenyl)-1H-pyrazol-5-yl)ethan-1-ol] |
| < 0.1 µM | FC(F)(F)c1ccc(Nc2ccccc2-c2nnn(C3CCOC3)n2)cc1 (stereo not shown) [Compound 119, 2-(2-(tetrahydrofuran-3-yl)-2H-tetrazol-5-yl)-N-(4-(trifluoromethyl)phenyl) Aniline] |
| < 0.1 µM | OC(Cn1nnc(-c2ccccc2Nc2ccc(C(F)(F)F)cc2)n1)C(F)(F)F (stereo not shown) [Compound 131, 1,1,1-trifluoro-3-[5-[2-[4-(trifluoromethyl)anilino]phenyl]tetrazol-2-yl]propan-2-ol] |
| 1 to 5 µM | CN(C)CCCn1nnc(-c2ccccc2Nc2ccc(C(F)(F)F)cc2)n1 [Compound 62, 2-(2-(3-(dimethylamino)propyl)-2H-tetrazol-5-yl)-N-(4-(trifluoromethyl)phenyl) Aniline] |
| 0.1 to 1 µM | FC(F)(F)c1ccc(Nc2ccccc2-c2nnn(Cc3cccnc3)n2)cc1 [Compound 40, 2-[2-(3-pyridylmethyl)tetrazol-5-yl]-N-[4-(trifluoromethyl)phenyl]aniline] |
| 1 to 5 µM | FC(F)(F)Oc1ccc(Nc2ccccc2-c2nnn(Cc3cccnc3)n2)cc1 [Compound 51, 2-[2-(3-pyridylmethyl)tetrazol-5-yl]-N-[4-(trifluoromethoxy)phenyl]aniline] |
| 0.1 to 1 µM | CC(=O)NCCCn1nnc(-c2ccccc2Nc2ccc(C(F)(F)F)cc2)n1 [Compound 111, N-[3-[5-[2-[4-(trifluoromethyl)anilino]phenyl]tetrazol-2-yl]propyl]acetamide] |
| 1 to 5 µM | Cc1c(-c2ccccc2Nc2ccc(C(F)(F)F)cc2)cnn1CCO [Compound 84, 2-[5-methyl-4-[2-[4-(trifluoromethyl)anilino]phenyl]pyrazol-1-yl]ethanol] |
| 0.1 to 1 µM | CC(=O)N1CC(O)(Cn2nnc(-c3ccccc3Nc3ccc(C(F)(F)F)cc3)n2)C1 [Compound 161, 1-[3-hydroxy-3-[[5-[2-[4-(trifluoromethyl)anilino]phenyl]tetrazol-2-yl]methyl]azetidin-1-yl]ethanone] |
